Experimental data reported in ChEMBL document CHEMBL4476874, “Compounds for the modulation of myc activity” (2018).

Key:
[1] = target: Myc proto-oncogene protein (Homo sapiens, UniProt P01106); test: Inhibition of human c-Myc assessed as reduction in c-Myc/Max/Ebox DNA complex formation using pre-formed complex of c-Myc and biotinylated DNA containing single Ebox-sequence followed by compound addition and further addition of his6-tagged c-Max and incubated for 2 hrs by AlphaScreen assay
[2] = test system: NCI-H2171; test: Antiproliferative activity against human NCI-H2171 cells after 72 hrs by ATPlite assay; assay type: functional, cell-based; settings: NCI-H2171, 72 h

Myc proto-oncogene protein, sequence (P01106 whole entry): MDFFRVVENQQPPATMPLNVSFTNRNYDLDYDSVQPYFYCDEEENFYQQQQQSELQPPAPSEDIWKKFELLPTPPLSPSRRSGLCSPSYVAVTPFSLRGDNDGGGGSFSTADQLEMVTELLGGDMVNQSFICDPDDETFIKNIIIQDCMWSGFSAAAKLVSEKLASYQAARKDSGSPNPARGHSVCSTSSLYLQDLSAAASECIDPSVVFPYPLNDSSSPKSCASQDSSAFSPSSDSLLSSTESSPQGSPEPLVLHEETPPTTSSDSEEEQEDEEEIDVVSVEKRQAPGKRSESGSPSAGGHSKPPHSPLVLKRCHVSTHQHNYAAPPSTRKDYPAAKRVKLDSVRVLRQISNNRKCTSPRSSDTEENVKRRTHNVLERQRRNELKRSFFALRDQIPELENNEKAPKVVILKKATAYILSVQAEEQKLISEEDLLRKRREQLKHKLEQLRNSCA

Row | IC50 [1] [nM] | IC50 [2] [nM] | Structure (SMILES)
1 | 300 to 1000 | < 300 | CNS(=O)(=O)c1cccc(-c2ccc3nc(-c4c(NC(=O)CCNCCOC)sc5c4CCNC5)sc3c2)c1
2 | 300 to 1000 | < 300 | COCCNCCC(=O)Nc1sc2c(c1-c1nc3ccc(-c4ccnc(OC)c4)cc3s1)CCNC2
3 | > 10000 | < 300 | COCCNCCC(=O)Nc1sc2c(c1-c1nc3ccc(-c4ccncc4C)cc3s1)CCNC2
4 | 300 to 1000 | < 300 | CNS(=O)(=O)c1cccc(-c2ccc3sc(-c4c(NC(=O)CCNCCOC)sc5c4CCNC5)nc3c2)c1
5 | < 300 | 300 to 1000 | COCCNCCC(=O)Nc1sc2c(c1-c1nc3cc(-c4cncnc4)ccc3s1)CCNC2
6 | 300 to 1000 | < 300 | COCCNCCC(=O)Nc1sc2c(c1-c1nc3cc(-c4cnn(C)c4C)ccc3s1)CCNC2
7 | < 300 | < 300 | COCCNCCC(=O)Nc1sc2c(c1-c1nc3ccc(-c4ccc(N5CCN(C)CC5)cc4)cc3s1)CCNC2
8 | 300 to 1000 | < 300 | COCCNCCC(=O)Nc1sc2c(c1-c1nc3ccc(-c4cccc(C(=O)N(C)C)c4)cc3s1)CCNC2
9 | 300 to 1000 | < 300 | COCCNCCC(=O)Nc1sc2c(c1-c1nc3ccc(-c4cnc(N)nc4)cc3s1)CCNC2
10 | 300 to 1000 | < 300 | CSc1ccc2sc(-c3c(NC(=O)CCNC(C)C)sc4c3CCNC4)nc2c1
11 | 300 to 1000 | < 300 | COCCNCCC(=O)Nc1sc2c(c1-c1nc3ccc(-c4cccc(NS(C)(=O)=O)c4)cc3s1)CCNC2
12 | 300 to 1000 | 300 to 1000 | COCCNCCC(=O)Nc1sc2c(c1-c1nc3cc(-c4cccc(S(N)(=O)=O)c4)ccc3s1)CCNC2
13 | 300 to 1000 | < 300 | COCCNCCC(=O)Nc1sc2c(c1-c1nc3cc(-c4ccc(C(=O)N(C)C)cc4F)ccc3s1)CCNC2
14 | 300 to 1000 | < 300 | COCCNCCC(=O)Nc1sc2c(c1-c1nc3cc(-c4ccnc(C)c4)ccc3s1)CCNC2
15 | 1000 to 10000 | < 300 | COCCNCCC(=O)Nc1sc2c(c1-c1nc3cc(-c4cnccc4C)ccc3s1)CCNC2
16 | 300 to 1000 | < 300 | COCCNCCC(=O)Nc1sc2c(c1-c1nc3cc(-c4ccc(C)nc4)ccc3s1)CCNC2
17 | 300 to 1000 | < 300 | COCCNCCC(=O)Nc1sc2c(c1-c1nc3cc(-c4ccc(N5CCN(C)CC5)cc4)ccc3s1)CCNC2
18 | < 300 | < 300 | CCc1cccc2sc(-c3c(NC(=O)CCNCCOC)sc4c3CCNC4)nc12
19 | 300 to 1000 | < 300 | COCCNCCC(=O)Nc1sc2c(c1-c1nc3ccc(-c4ccnc(NC(C)=O)c4)cc3s1)CCNC2
20 | 1000 to 10000 | < 300 | COCCNCCC(=O)Nc1sc2c(c1-c1nc3cc(-c4cccnc4C)ccc3s1)CCNC2
21 | > 10000 | < 300 | COCCNCCC(=O)Nc1sc2c(c1-c1nc3ccc(-c4ccc5nc(N)ncc5c4)cc3s1)CCNC2
22 | 300 to 1000 | < 300 | COCCNCCC(=O)Nc1sc2c(c1-c1nc3cc(-c4ccnc(C(F)(F)F)c4)ccc3s1)CCNC2
23 | 300 to 1000 | < 300 | COCCNCCC(=O)Nc1sc2c(c1-c1nc3ccc(-c4ccc(C)nc4)cc3s1)CCNC2
24 | 1000 to 10000 | 300 to 1000 | CCOc1ncccc1-c1ccc2sc(-c3c(NC(=O)CCNCCOC)sc4c3CCNC4)nc2c1
25 | 300 to 1000 | < 300 | COCCNCCC(=O)Nc1sc2c(c1-c1nc3ccc(-c4ccnc(C)c4)cc3s1)CCNC2

Row | IC50 [1] [nM] | IC50 [2] [nM] | Structure (SMILES)
26 | < 300 | > 10000 | CC(C)NCCC(=O)Nc1sc2c(c1-c1nc3cc(S(C)(=O)=O)ccc3s1)CCNC2
27 | 1000 to 10000 | < 300 | COCCNCCC(=O)Nc1sc2c(c1-c1nc3cc(-c4cccc(NS(C)(=O)=O)c4)ccc3s1)CCNC2
28 | 1000 to 10000 | < 300 | COCCNCCC(=O)Nc1sc2c(c1-c1nc3cc(-c4ccncc4C)ccc3s1)CCNC2
29 | 300 to 1000 | < 300 | COCCNCCC(=O)Nc1sc2c(c1-c1nc3cc(-c4ccc(F)nc4F)ccc3s1)CCNC2
30 | > 10000 | < 300 | COCCNCCC(=O)Nc1sc2c(c1-c1nc3ccc(-c4cncc(C(F)(F)F)c4)cc3s1)CCNC2
31 | 300 to 1000 | < 300 | COCCNCCC(=O)Nc1sc2c(c1-c1nc3cc(-c4ccnn4C)ccc3s1)CCNC2
32 | > 10000 | 300 to 1000 | COCCNCCC(=O)Nc1sc2c(c1-c1nc3c(N4CCOCC4)cccc3s1)CCNC2
33 | 1000 to 10000 | < 300 | COCCNCCC(=O)Nc1sc2c(c1-c1nc3cc(-c4ccccc4NS(C)(=O)=O)ccc3s1)CCNC2
34 | < 300 | 300 to 1000 | COCCNCCC(=O)Nc1sc2c(c1-c1nc3cc(-c4ccc(O)nc4)ccc3s1)CCNC2
35 | 300 to 1000 | 300 to 1000 | COCCNCCC(=O)Nc1sc2c(c1-c1nc3cc(-c4ccc(N5CCOCC5)nc4)ccc3s1)CCNC2
36 | 300 to 1000 | < 300 | COCCNCCC(=O)Nc1sc2c(c1-c1nc3ccc(-c4ccnc(N)c4)cc3s1)CCNC2
37 | < 300 | 300 to 1000 | COCCNCCC(=O)Nc1sc2c(c1-c1nc3cc(-c4ccc(F)nc4)ccc3s1)CCNC2
38 | 300 to 1000 | < 300 | O=C(C[C@H]1CCCN1)Nc1sc2c(c1-c1nc3ccccc3s1)CCNC2
39 | 300 to 1000 | < 300 | COCCNCCC(=O)Nc1sc2c(c1-c1nc3cc(OC4CCOCC4)ccc3s1)CCNC2
40 | 300 to 1000 | 300 to 1000 | COCCNCCC(=O)Nc1sc2c(c1-c1nc3cc(-c4cncc(C#N)c4)ccc3s1)CCNC2
41 | 300 to 1000 | < 300 | COCCNCCC(=O)Nc1sc2c(c1-c1nc3ccc(-c4cnn(C)c4C)cc3s1)CCNC2
42 | 300 to 1000 | < 300 | COCCNCCC(=O)Nc1sc2c(c1-c1nc3cc(-c4cccc(C#N)c4)ccc3s1)CCNC2
43 | 300 to 1000 | < 300 | COCCNCCC(=O)Nc1sc2c(c1-c1nc3ccc(-c4cncc(N)c4)cc3s1)CCNC2
44 | < 300 | 300 to 1000 | CC(C)NCCC(=O)Nc1sc2c(c1-c1nc3cc(O)ccc3s1)CCNC2
45 | 300 to 1000 | < 300 | COCCNCCC(=O)Nc1sc2c(c1-c1nc3ccc(-c4c[nH]nc4C)cc3s1)CCNC2
46 | 1000 to 10000 | < 300 | COCCNCCC(=O)Nc1sc2c(c1-c1nc3cc(-c4cnc(N)c(C(F)(F)F)c4)ccc3s1)CCNC2
47 | 300 to 1000 | < 300 | CC(=O)Nc1cccc2sc(-c3c(NC(=O)CCNC(C)C)sc4c3CCNC4)nc12
48 | 300 to 1000 | < 300 | COCCNCCC(=O)Nc1sc2c(c1-c1nc3cc(-c4cncc(OCCOC)c4)ccc3s1)CCNC2
49 | 300 to 1000 | < 300 | COCCNCCC(=O)Nc1sc2c(c1-c1nc3cc(-c4cnc(N5CCOCC5)nc4)ccc3s1)CCNC2
50 | 300 to 1000 | < 300 | CSc1cccc2sc(-c3c(NC(=O)CCNC(C)C)sc4c3CCNC4)nc12

Row | IC50 [1] [nM] | IC50 [2] [nM] | Structure (SMILES)
51 | < 300 | < 300 | COCCNCCC(=O)Nc1sc2c(c1-c1nc3cc(-c4ccc5ncnn5c4)ccc3s1)CCNC2
52 | 1000 to 10000 | < 300 | COCCNCCC(=O)Nc1sc2c(c1-c1nc3cc(-c4ccc(C(F)(F)F)nc4)ccc3s1)CCNC2
53 | 300 to 1000 | < 300 | COCCNCCC(=O)Nc1sc2c(c1-c1nc3cc(-c4cncc(C)c4)ccc3s1)CCNC2
54 | 1000 to 10000 | < 300 | COCCNCCC(=O)Nc1sc2c(c1-c1nc3cc(-c4cnn(Cc5ccccc5)c4)ccc3s1)CCNC2
55 | 300 to 1000 | < 300 | COCCNCCC(=O)Nc1sc2c(c1-c1nc3ccc(-c4cncnc4)cc3s1)CCNC2
56 | 1000 to 10000 | < 300 | COCCNCCC(=O)Nc1sc2c(c1-c1nc3c(NS(C)(=O)=O)cccc3s1)CCNC2
57 | 1000 to 10000 | < 300 | COCCNCCC(=O)Nc1sc2c(c1-c1nc3ccc(-c4cncc(C)c4)cc3s1)CCNC2
58 | 1000 to 10000 | < 300 | COCCNCCC(=O)Nc1sc2c(c1-c1nc3cc(-c4c(C)nn(C)c4C)ccc3s1)CCNC2
59 | 1000 to 10000 | < 300 | COCCNCCC(=O)Nc1sc2c(c1-c1nc3cc(-c4ccc(OC(C)C)nc4)ccc3s1)CCNC2
60 | 300 to 1000 | < 300 | COCCNCCC(=O)Nc1sc2c(c1-c1nc3cc(-c4cncc(C(F)(F)F)c4)ccc3s1)CCNC2
61 | 300 to 1000 | < 300 | CC(C)NCCC(=O)Nc1sc2c(c1-c1nc3cc(C4=CCN(S(=O)(=O)N(C)C)CC4)ccc3s1)CCNC2
62 | 300 to 1000 | < 300 | CC(C)NCCC(=O)Nc1sc2c(c1-c1nc3cc(C4CC4)ccc3s1)CCNC2
63 | < 300 | < 300 | COCCNCCC(=O)Nc1sc2c(c1-c1nc3ccccc3s1)CCN[C@@H]2C
64 | 300 to 1000 | < 300 | COCCNCCC(=O)Nc1sc2c(c1-c1nc3c(-n4ccnc4C)cccc3s1)CCNC2
65 | 300 to 1000 | < 300 | COCCNCCC(=O)Nc1sc2c(c1-c1nc3ccc(-c4cccc(S(N)(=O)=O)c4)cc3s1)CCNC2
66 | 1000 to 10000 | < 300 | O=C(C[C@@H]1CCCN1)Nc1sc2c(c1-c1nc3ccccc3s1)CCNC2
67 | 300 to 1000 | 300 to 1000 | COCCNCCC(=O)Nc1sc2c(c1-c1nc3cc(-c4c[nH]nc4C)ccc3s1)CCNC2
68 | 1000 to 10000 | < 300 | COCCNCCC(=O)Nc1sc2c(c1-c1nc3cc(-c4ccc(OC)nc4)ccc3s1)CCNC2
69 | 300 to 1000 | < 300 | COCCNCCC(=O)Nc1sc2c(c1-c1nc3ccc(-c4ccc(F)nc4)cc3s1)CCNC2
70 | 300 to 1000 | < 300 | COCCNCCC(=O)Nc1sc2c(c1-c1nc3cc(-c4ccnc(OC)c4)ccc3s1)CCNC2
71 | 300 to 1000 | < 300 | COCCNCCC(=O)Nc1sc2c(c1-c1nc3cc(-c4cc(C)[nH]n4)ccc3s1)CCNC2
72 | 1000 to 10000 | < 300 | CNC(=O)Nc1ccc(-c2ccc3nc(-c4c(NC(=O)CCNCCOC)sc5c4CCNC5)sc3c2)cc1
73 | 300 to 1000 | < 300 | COCCNCCC(=O)Nc1sc2c(c1-c1nc3cc(-c4cccc(S(C)(=O)=O)c4)ccc3s1)CCNC2
74 | 1000 to 10000 | < 300 | COCCNCCC(=O)Nc1sc2c(c1-c1nc3ccc(-c4ccnn4C)cc3s1)CCNC2
